Source: patent US8541418B2, “Inhibitors of polo-like kinase” (Elan Pharmaceutical, Inc., priority 2009, dated 2013)
Read-outs that look alike come from different tables or passages of the source.

Columns and labels:
Type in all cases: biochemical
PLK1 = PLK1 (Homo sapiens, UniProt P53350); test: PLK TR-FRET peptide assay, PLK1
PLK2 = PLK2 (Homo sapiens, UniProt Q9NYY3); test: PLK TR-FRET peptide assay, PLK2; conditions: for IC50: PLK TR-FRET peptide assay, read-out: Plk2 IC50; for relative PLK2 activity of the enantiomers: compared with the opposite enantiomer
PLK2, sequence (Q9NYY3 whole entry): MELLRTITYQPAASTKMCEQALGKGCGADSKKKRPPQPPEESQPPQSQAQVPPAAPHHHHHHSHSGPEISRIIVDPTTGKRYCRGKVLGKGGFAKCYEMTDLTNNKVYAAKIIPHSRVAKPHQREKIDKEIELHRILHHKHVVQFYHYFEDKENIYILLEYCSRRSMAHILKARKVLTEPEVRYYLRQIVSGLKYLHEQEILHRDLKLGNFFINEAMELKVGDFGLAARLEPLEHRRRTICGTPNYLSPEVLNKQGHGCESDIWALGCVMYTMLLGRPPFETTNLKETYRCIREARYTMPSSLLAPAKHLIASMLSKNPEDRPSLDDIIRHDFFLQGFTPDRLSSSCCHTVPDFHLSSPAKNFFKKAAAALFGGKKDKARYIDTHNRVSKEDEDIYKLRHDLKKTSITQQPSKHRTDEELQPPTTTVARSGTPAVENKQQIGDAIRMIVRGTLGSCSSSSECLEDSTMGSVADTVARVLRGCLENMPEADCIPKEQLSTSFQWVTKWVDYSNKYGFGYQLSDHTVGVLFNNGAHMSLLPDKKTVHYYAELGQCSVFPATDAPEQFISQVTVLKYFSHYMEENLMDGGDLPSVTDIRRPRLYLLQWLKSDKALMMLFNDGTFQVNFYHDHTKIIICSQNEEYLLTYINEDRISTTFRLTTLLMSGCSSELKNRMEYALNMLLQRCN

PLK3 = PLK3 (Homo sapiens, UniProt Q9H4B4); test: PLK TR-FRET peptide assay, PLK3
PLK3, sequence (Q9H4B4 whole entry): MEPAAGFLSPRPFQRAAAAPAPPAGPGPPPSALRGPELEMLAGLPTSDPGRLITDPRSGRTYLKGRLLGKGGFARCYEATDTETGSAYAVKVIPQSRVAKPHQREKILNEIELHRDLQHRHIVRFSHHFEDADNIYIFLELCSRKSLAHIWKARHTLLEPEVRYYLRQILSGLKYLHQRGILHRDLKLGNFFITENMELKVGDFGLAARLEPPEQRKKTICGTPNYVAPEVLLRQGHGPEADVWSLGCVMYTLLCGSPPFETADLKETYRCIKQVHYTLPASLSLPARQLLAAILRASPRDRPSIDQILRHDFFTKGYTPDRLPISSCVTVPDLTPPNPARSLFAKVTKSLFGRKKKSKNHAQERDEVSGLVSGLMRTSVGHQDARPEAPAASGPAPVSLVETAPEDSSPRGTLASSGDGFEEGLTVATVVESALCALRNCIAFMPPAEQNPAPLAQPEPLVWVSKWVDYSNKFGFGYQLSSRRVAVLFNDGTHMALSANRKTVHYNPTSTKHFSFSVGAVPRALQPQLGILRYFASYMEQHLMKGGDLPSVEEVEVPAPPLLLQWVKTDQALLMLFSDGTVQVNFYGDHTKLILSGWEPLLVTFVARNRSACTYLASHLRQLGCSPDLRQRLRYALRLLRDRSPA

[1] = GST-PLK3, 15 min reaction, read-out: Plk3 IC50

PLK1, sequence (P53350 whole entry): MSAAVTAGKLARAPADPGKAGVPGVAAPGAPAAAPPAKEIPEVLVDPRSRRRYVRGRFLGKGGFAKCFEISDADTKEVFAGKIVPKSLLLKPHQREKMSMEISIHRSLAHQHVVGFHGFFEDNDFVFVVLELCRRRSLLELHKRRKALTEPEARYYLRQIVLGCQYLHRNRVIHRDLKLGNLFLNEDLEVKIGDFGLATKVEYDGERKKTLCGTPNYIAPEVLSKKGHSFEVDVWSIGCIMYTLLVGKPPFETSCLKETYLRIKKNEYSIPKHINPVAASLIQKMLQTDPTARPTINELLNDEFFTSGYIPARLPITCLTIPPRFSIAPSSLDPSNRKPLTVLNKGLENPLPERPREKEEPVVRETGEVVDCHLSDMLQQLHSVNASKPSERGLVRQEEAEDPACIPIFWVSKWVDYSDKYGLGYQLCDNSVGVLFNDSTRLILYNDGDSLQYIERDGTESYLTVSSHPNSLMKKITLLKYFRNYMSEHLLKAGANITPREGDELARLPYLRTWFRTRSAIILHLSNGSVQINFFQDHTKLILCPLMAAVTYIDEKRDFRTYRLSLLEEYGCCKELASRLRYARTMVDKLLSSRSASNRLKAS

IC50 (PLK1; GST-PLK1, 60 min reaction) | IC50 (PLK2; GST-PLK2, 60 min reaction) | IC50 (PLK3; [1]) | relative PLK2 activity of the enantiomers (PLK2) | IC50 (PLK1; GST-PLK1) | IC50 (PLK2; GST-PLK2) | IC50 (PLK3; GST-PLK3, read-out: Plk3 IC50) | Structure (SMILES)
10 to 50 µM | < 1000 nM | > 50 µM |  |  |  |  | CC[C@@]12CCCN1c1nc(-n3ccnc3-c3cccc(OC(F)(F)F)c3)ncc1N(C)C2=O [Example 251, (S)-6a-ethyl-5-methyl-2-(2-(3-(trifluoromethoxy)phenyl)-1H-imidazol-1-yl)-6a,7,8,9-tetrahydropyrrolo[2,1-h]pteridin-6(5H)-one]
10 to 50 µM | 10000 to 50000 nM | 10 to 50 µM |  |  |  |  | CC[C@@H]1C(=O)N(C)c2cnc(-c3ccncc3NC(=O)CC(C)(C)C)nc2N1C(C)C [Example 103, (R)—N-(4-(7-ethyl-8-isopropyl-5-methyl-6-oxo-5,6,7,8-tetrahydropteridin-2-yl)pyridin-3-yl)-3,3-dimethylbutanamide]
1 to 10 µM | < 1000 nM | 10 to 50 µM |  |  |  |  | CC[C@@]12CCCN1c1nc(-c3cn[nH]c3-c3ccccc3)ncc1N(C)C2=O [Example 305, (S)-6a-ethyl-5-methyl-2-(5-phenyl-1H-pyrazol-4-yl)-6a,7,8,9-tetrahydropyrrolo[2,1-h]pteridin-6(5H)-one]
< 1 µM | < 1000 nM | < 1 µM |  |  |  |  | CC[C@@H]1C(=O)N(C)c2cnc(-n3ccnc3-c3ccccc3)nc2N1C(C)C1CC1 (stereo partly drawn) [Example 350, (7R)-8-(1-cyclopropylethyl)-7-ethyl-5-methyl-2-(2-phenyl-1H-imidazol-1-yl)-7,8-dihydropteridin-6(5H)-one]
< 1 µM | < 1000 nM | 10 to 50 µM |  |  |  |  | CC[C@@H]1C(=O)N(C)c2cnc(-c3ccnc(NC)c3)nc2N1C1CCCC1 [Example 20, (R)-8-cyclopentyl-7-ethyl-5-methyl-2-(2-(methylamino)pyridin-4-yl)-7,8-dihydropteridin-6(5H)-one]
1 to 10 µM | < 1000 nM | 10 to 50 µM |  |  |  |  | CC[C@@H]1C(=O)N(C)c2cnc(-n3ccnc3Cl)nc2N1C1CCCC1 [Example 292, (R)-2-(2-chloro-1H-imidazol-1-yl)-8-cyclopentyl-7-ethyl-5-methyl-7,8-dihydropteridin-6(5H)-one]
< 1 µM | < 1000 nM | < 1 µM |  |  |  |  | CC[C@@H]1C(=O)N(C)c2cnc(-n3ccnc3-n3cccn3)nc2N1C1CCCC1 [Example 89, (R)-2-(2-(1H-pyrazol-1-yl)-1H-imidazol-1-yl)-8-cyclopentyl-7-ethyl-5-methyl-7,8-dihydropteridin-6(5H)-one]
10 to 50 µM | 1000 to 10000 nM | > 50 µM |  |  |  |  | CC[C@@H]1C(=O)N(C)c2cnc(-c3ccncc3NC(=O)OC(C)(C)C)nc2N1C(C)C [Example 94, (R)-tert-butyl 4-(7-ethyl-8-isopropyl-5-methyl-6-oxo-5,6,7,8-tetrahydropteridin-2-yl)pyridin-3-ylcarbamate]
1 to 10 µM | < 1000 nM | 10 to 50 µM |  |  |  |  | CC[C@@H]1C(=O)N(C)c2cnc(-c3cnoc3-c3ccc(F)cc3)nc2N1C(C)C [Example 173, (R)-7-ethyl-2-(5-(4-fluorophenyl)isoxazol-4-yl)-8-isopropyl-5-methyl-7,8-dihydropteridin-6(5H)-one]
1 to 10 µM | < 1000 nM | 1 to 10 µM |  |  |  |  | CC[C@@H]1C(=O)N(C)c2cnc(-n3ccnc3C3CC3)nc2N1C1CCCC1 [Example 288, (R)-8-cyclopentyl-2-(2-cyclopropyl-1H-imidazol-1-yl)-7-ethyl-5-methyl-7,8-dihydropteridin-6(5H)-one]
1 to 10 µM | < 1000 nM | 1 to 10 µM |  |  |  |  | CC[C@@H]1C(=O)N(C)c2cnc(-n3ccnc3-c3cc(Cl)cc(Cl)c3)nc2N1C1CCC1 [Example 198, (R)-8-cyclobutyl-2-(2-(3,5-dichlorophenyl)-1H-imidazol-1-yl)-7-ethyl-5-methyl-7,8-dihydropteridin-6(5H)-one]
1 to 10 µM | < 1000 nM | 1 to 10 µM |  |  |  |  | CC[C@@H]1C(=O)N(C)c2cnc(-n3ccnc3-c3ccc(F)cc3)nc2N1C1CCC1 [Example 50, (R)-8-cyclobutyl-7-ethyl-2-(2-(4-fluorophenyl)-1H-imidazol-1-yl)-5-methyl-7,8-dihydropteridin-6(5H)-one]
1 to 10 µM | < 1000 nM | 10 to 50 µM |  |  |  |  | CC[C@@H]1C(=O)N(C)c2cnc(-c3nccs3)nc2N1C1CCCC1 [Example 330, (R)-8-cyclopentyl-7-ethyl-5-methyl-2-(thiazol-2-yl)-7,8-dihydropteridin-6(5H)-one]
10 to 50 µM | 10000 to 50000 nM | > 50 µM |  |  |  |  | CCC1C(=O)N(C)c2cnc(-n3ccnc3)nc2N1c1cccc(-n2cccn2)c1 (stereo not shown) [Example 336, 8-(3-(1H-pyrazol-1-yl)phenyl)-7-ethyl-2-(1H-imidazol-1-yl)-5-methyl-7,8-dihydropteridin-6(5H)-one]
10 to 50 µM | 1000 to 10000 nM | 10 to 50 µM |  |  |  |  | CC[C@@H]1C(=O)N(C)c2cnc(-c3ccncc3CNS(=O)(=O)c3ccccc3)nc2N1C1CCCC1 [Example 125, (R)—N-((4-(8-cyclopentyl-7-ethyl-5-methyl-6-oxo-5,6,7,8-tetrahydropteridin-2-yl)pyridin-3-yl)methyl)benzenesulfonamide]
1 to 10 µM | < 1000 nM | 1 to 10 µM |  |  |  |  | CC[C@@H]1C(=O)N(C)c2cnc(-n3ccnc3C3=CCCC3)nc2N1C1CCCC1 [Example 231, (R)-2-(2-cyclopentenyl-1H-imidazol-1-yl)-8-cyclopentyl-7-ethyl-5-methyl-7,8-dihydropteridin-6(5H)-one]
1 to 10 µM | < 1000 nM | > 50 µM |  |  |  |  | [2H]C([2H])([2H])N1C(=O)C(C([2H])([2H])C([2H])([2H])[2H])N(C([2H])(C([2H])([2H])[2H])C([2H])([2H])[2H])c2nc(-n3ccnc3-c3cccc(C(F)(F)F)c3)ncc21 (stereo not shown) [Example 172, 7-ethyl-8-isopropyl-5-methyl-2-(2-(3-(trifluoromethyl)phenyl)-1H-imidazol-1-yl)-7,8-dihydropteridin-6(5H)-one]
10 to 50 µM | < 1000 nM | 10 to 50 µM | more active compound |  |  |  | CN1C(=O)[C@@H](CC(F)(F)F)N(CCC(F)(F)F)c2nc(-n3ccnc3)ncc21 [Example 301, (R)-2-(1H-imidazol-1-yl)-5-methyl-7-(2,2,2-trifluoroethyl)-8-(3,3,3-trifluoropropyl)-7,8-dihydropteridin-6(5H)-one]
> 50 µM | > 50000 nM | > 50 µM |  |  |  |  | CC[C@]12CCCCN1c1nc(-n3ccnc3-c3cc(F)c(F)c(F)c3)ncc1N(C)C2=O [Example 267, (R)-6a-ethyl-5-methyl-2-(2-(3,4,5-trifluorophenyl)-1H-imidazol-1-yl)-7,8,9,10-tetrahydro-5H-pyrido[2,1-h]pteridin-6(6aH)-one]
1 to 10 µM | 1000 to 10000 nM | 10 to 50 µM |  |  |  |  | CC[C@@H]1C(=O)N(C)c2cnc(-n3ccnc3)nc2N1C1CCOCC1 [Example 295, (R)-7-ethyl-2-(1H-imidazol-1-yl)-5-methyl-8-(tetrahydro-2H-pyran-4-yl)-7,8-dihydropteridin-6(5H)-one]
1 to 10 µM | < 1000 nM | 10 to 50 µM | more active compound |  |  |  | CN1C(=O)[C@@H](CC(F)(F)F)N(CCC(F)(F)F)c2nc(-n3ccnc3-c3ccc(F)cc3F)ncc21 [Example 293, (R)-2-(2-(2,4-difluorophenyl)-1H-imidazol-1-yl)-5-methyl-7-(2,2,2-trifluoroethyl)-8-(3,3,3-trifluoropropyl)-7,8-dihydropteridin-6(5H)-one]
> 50 µM | 10000 to 50000 nM | > 50 µM |  |  |  |  | CC[C@@H]1C(=O)N(C)c2cnc(-c3ccncc3CN)nc2N1C(C)C [Example 126, (R)-2-(3-(aminomethyl)pyridin-4-yl)-7-ethyl-8-isopropyl-5-methyl-7,8-dihydropteridin-6(5H)-one]
 |  |  | more active compound | < 1 µM | < 1000 nM | < 1 µM | CC[C@@H]1C(=O)N(C)c2cnc(-c3cn[nH]c3-c3nccs3)nc2N1c1ccc(Cl)cc1 [Example 382, (R)-8-(4-chlorophenyl)-7-ethyl-5-methyl-2-(5-(thiazol-2-yl)-1H-pyrazol-4-yl)-7,8-dihydropteridin-6(5H)-one]
10 to 50 µM | < 1000 nM | 10 to 50 µM |  |  |  |  | CCC12CCCCCN1c1nc(-n3ccnc3-c3ccccc3)ncc1N(C)C2=O (racemic) [Example 205, (+/−) 6a-ethyl-5-methyl-2-(2-phenyl-1H-imidazol-1-yl)-6a,7,8,9,10,11-hexahydroazepino[2,1-h]pteridin-6(5H)-one]
< 1 µM | < 1000 nM | > 50 µM |  |  |  |  | CC[C@]1(C)C(=O)N(C)c2cnc(-c3cn[nH]c3-c3nccs3)nc2N1CCC(F)(F)F [Example 310, (R)-7-ethyl-5,7-dimethyl-2-(5-(thiazol-2-yl)-1H-pyrazol-4-yl)-8-(3,3,3-trifluoropropyl)-7,8-dihydropteridin-6(5H)-one]
> 50 µM | > 50000 nM | > 50 µM |  |  |  |  | CCC1C(=O)N(C)c2cnc(-n3cc[n+](C)c3-c3ccccc3)nc2N1NC (stereo not shown) [Example 284, 1-(7-ethyl-5-methyl-8-(methylamino)-6-oxo-5,6,7,8-tetrahydropteridin-2-yl)-3-methyl-2-phenyl-1H-imidazol-3-ium]
1 to 10 µM | < 1000 nM | 1 to 10 µM | more active compound |  |  |  | CC[C@@H]1C(=O)N(C)c2cnc(-n3ccnc3-c3ccc(F)cc3)nc2N1c1cccc(C#N)c1 [Example 358, (R)-3-(7-ethyl-2-(2-(4-fluorophenyl)-1H-imidazol-1-yl)-5-methyl-6-oxo-6,7-dihydropteridin-8(5H)-yl)benzonitrile]
